Like-named read-outs stand apart in the source and are kept apart here.
Tests used:
[1] = tested on: B cells activated with LPS, anti-CD40 or anti-IgM antibody; assay: B cell proliferation, 3[H]thymidine incorporation (Example 3); format: cell-based, mouse; settings: for anti-IgM induced proliferation: 12.5-100 μg/ml; for inhibition at 100 µg/mL: Mus musculus, B-cell, 100 μg/ml
Method: FIG. 4 is a graphical representation depicting that B cell proliferation induced by LPS and anti-CD40 is inhibited by Tranilast. B-cells were activated in vitro with LPS or anti-CD40 antibody and 6.25-100 μg/ml tranilast. Proliferation was assessed using ^3[H]thymidine incorporation. LPS and anti-CD40 induced a 92- and 258-fold increase in thymidine incorporation respectively.
FIG. 5 is a graphical representation depicting that B cell proliferation induced by LPS and anti-CD40 and anti-IgM is inhibited by tranilast. B-cells were activated in vitro with LPS or anti-CD40 antibody or anti-IgM antibody, and 12.5-100 μg/ml tranilast. Proliferation was assessed using ^3[H]thymidine incorporation. LPS, anti-CD40 and anti-IgM induced 91- and 81- and 60-fold increases in thymidine incorporation respectively.
B cells were prepared from mouse spleen using rat anti-mouse IgM microbeads and the MACS system.
3 spleens were removed from male DBA/1 mice aged 8-12 weeks. A single cell suspension was prepared by cell-sieve.
Cells were cultured at 1×10^6 cells/ml in 200 μl complete RPMI with glutamine (10% FCS, 1% Pen/Strep, 50 μM 2-Mercaptoethanol, 1 mM Na-Pyruvate) in a 96-well plate for 48 h in the presence of LPS (20 μg/ml), azide-free anti-CD40 monoclonal antibody (10 μg/ml), or azide free F(ab′)2 fragment of anti-IgM monoclonal antibody (20 μg/ml) and 100-6.25 μg/ml tranilast, or vehicle (DMSO).
1 μCi ^3[H]thymidine was added to each well and incubated overnight. Cells were harvested onto a pre-wet filter mat using a Skaton cell harvester. The filter mat was dried in a microwave for 2 minutes at 750 W. The dry filter mat was sealed in a bag using a plate sealer, and the corner cut. 10 ml scintillation fluid was placed in the bag, and spread evenly over the filter mat. The bag was re-sealed and read in a Wallac 1205 plate reader.

[2] = tested on: DBA/1 mice immunised with type II collagen in CFA; assay: Development of collagen-induced arthritis, treatment from the day of immunisation (Example 4); format: in vivo, mouse
Method: Type II collagen was purified from bovine cartilage, as described [Williams, R. O. 2004, Methods Mol. Med. 98:207-216] and solubilized by stirring overnight at 4° C. in acetic acid (0.1M) or Tris buffer (0.05 M Tris, containing 0.2 M NaCl, pH 7.4). Tranilast was synthesised by Angiogen Pharmaceuticals Pty. Ltd. For in vivo studies Tranilast was dissolved at a maximum concentration of 10 mg/ml in 1% sodium bicarbonate by heating for 1 h at 70° C. Upon cooling, an emulsion was formed. For in vitro studies Tranilast was dissolved in dimethyl sulphoxide (DMSO). 3-Hydroxy-anthranilic acid (3-HAA) was purchased from Sigma (Poole, UK) and dissolved in PBS.
Male DBA/1 mice (8-12 weeks old) were immunized intradermally at the base of the tail with bovine type II collagen (200 μg) emulsified in complete Freund's adjuvant (CFA; Difco, West Moseley, UK). Arthritis was monitored clinically using the following scoring system: 0=normal, 1=slight swelling and/or erythema, and 2=pronounced oedematous swelling. Each limb was graded, giving a maximum score of 8 per mouse. In addition, paw-swelling was measured using calipers.
(§1) ELISA plates (Nunc, Uxbridge, UK) were coated with 2 μg/ml of bovine CII dissolved overnight in Tris Buffer (0.05 M Tris, containing 0.2 M NaCl, pH 7.4) blocked with 2% bovine serum albumin (BSA) and then incubated with serial dilutions of test sera. A reference sample was included on each plate. Bound total IgG, IgG1 or IgG2a was detected by incubation with HRP-conjugated sheep anti-mouse IgG, IgG1 or IgG2a, followed by TMB substrate. Optical density was measured at 450 nm.
In order to assess its anti-arthritic potential, Tranilast was injected into DBA/1 mice (200 mg/kg/day) from the day of immunisation with type II collagen in CFA. By day 28, 5 of 7 (71%) vehicle treated mice had developed arthritis of moderate severity (clinical score 2.8±0.6), whilst 1 of 7 (14%) Tranilast-treated mice had developed mild arthritis (clinical score 1).

[3] = tested on: anti-type II collagen IgG1 and IgG2a; assay: Serum anti-collagen antibody levels in mice with established CIA (ELISA); format: in vivo, mouse; settings: 10 days treatment
Method: as §1

[4] = tested on: IL-10; assay: Serum IL-10 in mice with established CIA (ELISA); format: in vivo, mouse; settings: 10 days treatment (FIG. 7)
Method: Mice with established CIA were treated with 3,4-DAA or vehicle (n=7) for 10 days (see FIG. 6), then bled. IL-10 in the sera was measured by ELISA.
Inguinal lymph nodes were excised from Tranilast-treated and control mice. Alternatively, inguinal lymph nodes were removed from untreated arthritic mice (day 1-5 of arthritis) and Tranilast was added in vitro. In both cases, LNC were cultured in RPMI 1640 containing FCS (10% v/v), 2-mercaptoethanol (20 μM), L-glutamine (1% w/v), penicillin (100 U/ml) and streptomycin (100 μg/ml) in the presence or absence of type II collagen (50 μg/ml). Secreted cytokines (IFN-γ, IL-5, TNFα and IL-10) were measured after 72 h. by ELISA. In brief, 96 well ELISA plates were coated with the respective capture antibody, blocked with bovine serum albumin (2% w/v), and then incubated with LNC culture supernatants (neat) overnight at 4° C. After washing, bound cytokines were detected using biotinylated detect antibodies. A standard curve was generated using known concentrations of the appropriate recombinant cytokine and the concentrations of cytokines present in culture supernatants were estimated by reference to the standard curve.

COc1ccc(/C=C/C(=O)Nc2ccccc2C(=O)O)cc1OC [Tranilast, 2-[[3-(3,4-dimethoxyphenyl)-1-oxo-2-propenyl]amino]benzoic acid]
B cell proliferation induced by LPS or anti-CD40 ([1]; 37.5 μg/ml, FIG. 5): significantly inhibited | B cell proliferation induced by LPS or anti-CD40 ([1]; 100 μg/ml and 50 μg/ml, FIG. 4): significantly inhibited | anti-IgM induced proliferation ([1]; FIG. 5): effective at all doses assessed | anti-IgM induced proliferation ([1]; FIG. 5, listed as tranilast): all doses tested inhibited | inhibition at 100 µg/mL ([1]; FIG. 4, read-out: inhibition of B cell proliferation induced by LPS): 99% | inhibition at 100 µg/mL ([1]; FIG. 4, read-out: inhibition of B cell proliferation induced by anti-CD40): 97% | inhibition at 100 µg/mL ([1]; FIG. 5, read-out: maximum inhibition of B cell proliferation (LPS)): 96% | inhibition at 100 µg/mL ([1]; FIG. 5, read-out: maximum inhibition of B cell proliferation (anti-CD40)): 91% | inhibition at 100 µg/mL ([1]; FIG. 5, read-out: maximum inhibition of B cell proliferation (anti-IgM)): 98% | anti-collagen IgG1 or IgG2a levels in sera ([2]; 200 mg/kg/day from the day of immunisation): no change | mice that had developed arthritis by day 28 ([2]; 200 mg/kg/day from the day of immunisation, 1 of 7 mice): 14% | clinical score ([2]; day 28, 200 mg/kg/day from the day of immunisation): 1 | levels of anti-type II collagen IgG1 and IgG2a in sera [3]: no differences were observed | circulating IL-10 levels [4]: dose-dependent increase | circulating IL-10 levels ([4]; listed as 3,4-DAA): increased IL-10 levels
